Assay results reported in EP0398217B1, “Dehydrocholecalciferol derivatives” (F. HOFFMANN-LA ROCHE AG, priority 1989, dated 1990).
Marks after values point to notes of the source that are not given here.

Tests used:
menschlichen Sebocyten = test: Inhibition of sebocyte proliferation in vitro (sebocytes cultured on 3T3 fibroblast layer, cell count by haemocytometer); assay type: cell-based; details: amount inhibiting sebocyte proliferation by 50% versus solvent-treated control culture, read-out: ED₅₀
Protocol: 22a, Abstract 46 beschriebenen Methode isoliert und auf einer Schicht von Mäusen-Fibroblasten 3T3 kultiviert. Durch enzymatische und mechanische Methoden wurde aus Hautgewebe eine Suspension von Sebocyten hergestellt. Dazu wurden die Zellen entweder in 2% Humanserum, 8% fetales Kälberserum und 4 µg/ml Dexamethason oder in 10% fetales Kälberserum und 4 µg/ml Dexamethason enthaltendem Iscove-Medium kultiviert
Den Kulturen wurden die Testverbindungen im Medium alle 48 Stunden zugegeben. Nach der letzten Zugabe wurden die Fibroblasten 3T3 mit 0,03% EDTA in PBS abgespült. Die zurückbleibenden Sebocyten-Kolonien wurden in 0,05% Trypsin/0,03% EDTA unter Bildung einer einheitlichen Zellensuspension von Sebocyten inkubiert. Die Zellen wurden dann verdünnt und mittels eines Hämocytometers gezählt.
Es wurden 10⁻² M äthanolische Lösungen der Testverbindungen vorbereitet und dann auf 10⁻⁶, 10⁻⁷, 10⁻⁸ und 10⁻⁹ M verdünnt.
Die Resultate sind in der nachstehenden Tabelle 1 als Menge der Verbindung, die die Proliferation der Sebocyten um 50% gegenüber einem Kontrollwert hemmen, angegeben. Der Kontrollwert wurde aus einer lediglich mit Lösungsmittel behandelten Zellenkultur erhalten. Tabelle 1

[1] = tested on: Talgdrüsen des Hamsterohrs; test: Topical activity on sebaceous glands of the hamster ear (daily application for 4 weeks); assay type: in vivo; details: change of sebaceous gland cross-section versus acetone controls
Protocol: Die topische Wirksamkeit von Verbindungen der Formel I gegen Akne wurde an Talgdrüsen des Hamsterohrs gemessen. Versuchstieren wurden 50 µl einer Lösung der Testverbindung und Kontrolltieren 50 µl Aceton täglich auf das Ohr appliziert. Nach 4 Wochen wurden die Tiere getötet. Die Fläche der Talgdrüsen auf den Ohren wurde ermittelt. In der Tabelle 2 sind die Resultate als %-Aenderung gegenüber Kontrolltieren der Veränderung des Querschnitts der Talgdrüsen auf dem Hamsterohr angegeben: Tabelle 2

[2] = Soft tissue calcification in rats (45Ca radioactivity in heart and kidneys); assay type: in vivo, Ratten; details: ratio relative to compound X (=1); for Verkalkungsverhältnis Subkutan: subcutaneous administration for 4 days; for Verkalkungsverhältnis Topisch: topical administration for 4 days
Protocol: Zum Nachweis der Verkalkung von weichem Gewebe durch die Verbindungen der Formel I erhielten Ratten subkutane Injektionen von 40 µCi ⁴⁵Ca. Die Verbindungen wurden dann subkutan oder topisch während 4 Tagen den Tieren verabreicht. Die Ratten wurden 1 Tag nach der letzten Injektion getötet. Herz und Nieren wurden entfernt und mit Salpetersäure behandelt. Es wurde die Radioaktivität einer Menge von 0,2 ml dieser Präparation gemessen.

[3] = tested on: Talgdrüsen des Hamsterohrs; test: Effect on sebaceous glands of the hamster ear after oral administration (daily for 4 weeks); assay type: in vivo, syrischen Goldhamstern; details: change of sebaceous gland cross-section
Protocol: Der Effekt von Verbindungen der Formel I auf die Talgdrüsen des Hamsterohrs nach oraler Verabreichung wurde ermittelt. Männlichen syrischen Goldhamstern wurden täglich 200 µl einer Lösung der Testverbindungen in Propylenglykol oral verabreicht. Nach 4 Wochen wurden die Tiere getötet. Die Fläche der Talgdrüsen auf den Ohren wurde ermittelt. Die Resultate sind in Tabelle 4 als Veränderung im Querschnitt der Talgdrüsen des Hamsterohrs angegeben: Tabelle 4

[4] = topical, 10,00 µg/Hamster daily
[5] = oral, 5,00 µg/kg daily in propylene glycol

Compound | EC50 (menschlichen Sebocyten) | % Aenderung ([1]; topical, 0,10 µg/Hamster daily) | % Aenderung ([1]; topical, 1,00 µg/Hamster daily) | % Aenderung [1, 4] | Verkalkungsverhältnis Subkutan [2] | Verkalkungsverhältnis Topisch [2] | % Veränderung ([3]; oral, 0,05 µg/kg daily in propylene glycol) | % Veränderung ([3]; oral, 0,50 µg/kg daily in propylene glycol) | % Veränderung [3, 5] | % Veränderung ([3]; oral, 50,00 µg/kg daily in propylene glycol) | % Veränderung ([3]; oral, 2,50 µg/kg daily in propylene glycol) | % Veränderung ([3]; oral, 10,00 µg/kg daily in propylene glycol) | % Veränderung ([3]; oral, 20,00 µg/kg daily in propylene glycol)
C=C1/C(=C\C=C2/CCC[C@]3(C)C([C@H](C)CCCC(C)(C)O)=CC[C@@H]23)C[C@@H](O)C[C@@H]1O [A, 1α,25-Dihydroxy-16-dehydrocholecalciferol] | 1 nM | – | – | – | – | – | – | – | – | – | – | – | –
C=C1CC[C@H](O)C/C1=C/C=C1\CCC[C@]2(C)C([C@H](C)CC#CC(C)(C)O)=CC[C@@H]12 [F, 25-Hydroxy-16-dehydro-23-didehydrocholecalciferol] | 100 nM | -23% | -40% | -64% | >1400 | >34 | -16* % | -23** % | -42*** % | -55*** % | – | – | –
C=C1CC[C@H](O)C/C1=C/C=C1\CCC[C@]2(C)C([C@H](C)C/C=C/C(C)(C)O)=CC[C@@H]12 [Verbindung D, 25-Hydroxy-16,23E-bisdehydrocholecalciferol] | > 1000 nM | -16% | -16% | -43% | >1400 | >34 | – | – | -22** % | – | -15* % | -27*** % | -36*** %
C=C1/C(=C\C=C2/CCC[C@]3(C)C([C@H](C)CC#CC(C)(C)O)=CC[C@@H]23)C[C@@H](O)C[C@@H]1O [Verbindung E, 1α,25-Dihydroxy-16-dehydro-23-didehydrocholecalciferol] | 1 nM | – | – | – | 47 | > 1 | – | – | – | – | – | – | –
C=C1/C(=C\C=C2/CCC[C@]3(C)[C@@H]([C@H](C)CCCC(C)(C)O)CC[C@@H]23)C[C@@H](O)C[C@@H]1O [Verbindung X, 1α,25-Dihydroxycholecalciferol, reference compound] | 5 nM | – | – | – | 1 | 1 | – | – | – | – | – | – | –
